Assay results: patent publication US8481582B2, “1,3-dihydroimidazole-2-thione derivatives as inhibitors of dopamine-beta-hydroxylase” (Bial-Portela & CA, S.A., priority 2007, dated 2013)

Tests used:
[1] = tested on: noradrenaline levels in the heart and parietal cortex; experiment: Noradrenaline levels in heart and parietal cortex of mice 9 h after oral dosing; format: in vivo, Male NMRI mice; conditions: oral gavage, 9 h post dose, FIG. 1, compared with prior art DβH inhibitors
Description: Male NMRI mice were obtained from Harlan-Interfauna (Spain) and were kept 10 per cage under controlled environmental conditions (12 h light/dark cycle and room temperature 22±1° C.). Food and tap water were allowed ad libitum and experimentation was performed during daylight hours.
At time=0 h, animals were administered with either test compounds (see FIG. 2) at a given dose or vehicle (water) delivered orally via gavage. At 9 h post dose, the animals were sacrificed by decapitation and heart (left atrium and left ventricle) and brain (parietal cortex) were isolated, weighed and stored in a volume of 0.2 M perchloric acid for 12 h at 4° C. in the dark. Post incubation, the resulting supernatants were collected by centrifuge filtration of incubates ([…]/10 min/˜5000 rpm, 4° C.). Supernatants were stored frozen at −80° C. until analysis. Quantification of dopamine and noradrenaline in supernatants was performed by high pressure liquid chromatography with electrochemical detection.

[2] = central as well as peripheral effects; cited from earlier work

Compound | effect on noradrenaline levels in the heart and parietal cortex (heart vs brain selectivity) [1] | crossing of the blood brain barrier (BBB) [2]
Fc1cc(F)c2c(c1)CC(n1c(CCNCc3ccccc3)c[nH]c1=S)CO2 (single isomer, unassigned) [formula X] | marked selectivity for the heart compared to the brain | –
NCc1c[nH]c(=S)n1[C@H]1CCc2c(F)cc(F)cc2C1 [nepicastat] | – | cross the blood brain barrier
